Experimental data taken from patent US12427192B2, “Water soluble adjuvant and composition containing same” (Sumitomo Pharma Co., Ltd., priority 2019, dated 2025).

Key:
[1] = system: HLA-A*02:01 transgenic mouse; experiment: Test 18: in vivo adjuvant activity, cocktail vaccine m (liposome formulation 3), IFNγ ELISPOT; settings: added to cocktail vaccine m (liposome formulation 3); 0.4 nmol per body, twice; FIG. 22
Protocol: (§1) Evaluation of In Vivo Adjuvant Activity in HLA-A*02:01 Transgenic Mouse
The in vivo adjuvant activity of the compound of Example 1 was evaluated in the following procedure. To a vaccine (liposome formulation 3) comprising Compound of formula 4 prepared in Reference example 8 and Peptide SEQ ID No. 3 prepared in Reference example 3 (hereinafter, referred to as “cocktail vaccine m”) was added the compound prepared in Example 1 to prepare a vaccine. The vaccine was administered to a HLA-A*02:01 transgenic mouse, and the adjuvant activity of the vaccine was evaluated by the method of testing antigen-specific CTL induction.
For example, the above liposome formulation 3 was prepared as follows. 36.7 mg of 1,2-dipalmitoyl-sn-glycero-3-phosphocholine, 7.58 mg of 1,2-dipalmitoyl-sn-glycero-3-phospho-L-serine sodium salt, and 15.47 mg of cholesterol were dissolved in t-butyl alcohol/water mixture, and the mixture was lyophilized. […]
Cocktail vaccine m was injected to mice intradermally at the tail base area in an amount for administering 500 μg of Compound of formula 4 per body and 375 μg of Peptide SEQ ID No. 3 per body. […] Then, after removal of the supernatant from the wells, stained spots on the ELISPOT plate were counted.

[2] = system: HLA-A*02:01 transgenic mouse; experiment: Test 15: in vivo adjuvant activity, cocktail vaccine j (hydrogel formulation), IFNγ ELISPOT; settings: added to cocktail vaccine j (hydrogel formulation); 0.4 nmol per body, twice; FIG. 17 and 18
Protocol: as §1
The in vivo adjuvant activity of the compound of Example 1 was evaluated in the following procedure. To a vaccine (hydrogel formulation) comprising Compound of formula 4 prepared in Reference example 8 and Peptide SEQ ID No. 3 prepared in Reference example 3 (hereinafter, referred to as “cocktail vaccine j”) was added the compound prepared in Example 1 to prepare a vaccine. The vaccine was administered to a HLA-A*02:01 transgenic mouse, and the adjuvant activity of the vaccine was evaluated by the method of testing antigen-specific CTL induction.
For example, the above hydrogel formulation was prepared as follows. Compound of formula 4, Peptide SEQ ID No. 3, and polyoxyethylene(196)polyoxypropylene(67) glycol were mixed with pH 2.5 buffer (10 mM tartaric acid) to adjust each concentration to 1.5 mg/mL, 1.125 mg/mL, and 200 mg/mL, respectively. The mixture was […] to give a hydrogel formulation, cocktail vaccine j. The amount of the preparation was adjusted as appropriate.
Cocktail vaccine j was injected to mice intradermally at the tail base area in an amount for administering 300 μg of Compound of formula 4 per body and 225 μg of Peptide SEQ ID No. 3 per body. […] Then, after removal of the supernatant from the wells, stained spots on the ELISPOT plate were counted.

Structure (SMILES): CCCCCNc1nc(N)nc(C)c1Cc1ccc(CN(C)CCOCCOCCOCCOCCO)cc1OC [Example 1, 1-(4-{[2-amino-4-methyl-6-(pentylamino)pyrimidin-5-yl]methyl}-3-methoxyphenyl)-2-methyl-5,8,11,14-tetraoxa-2-azahexadecan-16-ol·trifluoroacetate]
- CTL counts responsive to Peptide SEQ ID No. 1 compared with adding no compound [1]: more
- CTL counts responsive to Peptide SEQ ID No. 1 or SEQ ID No. 4 compared with adding no compound [2]: more
